What was measured:
joints of mice with CIA = assay: Histology assessment of joints in CIA; assay type: in vivo, mouse (DBA/1); parameters: dose or concentration left out as unconfirmed
Experimental: Animal studies were performed by Bolder BioPATH (Boulder, CO, USA). CIA was induced in male 6‐ to 7‐week‐old DBA/1 mice by immunization with bovine type II collagen as previously described 19. Briefly, mice were injected intradermally with 100 μl of Freund's complete adjuvant containing 250 μg of bovine type II collagen (2 mg/ml final concentration) at the base of the tail on day 0 and again on day 21. On day 24, mice were randomized by body weight into treatment groups. At enrolment on day 24, the mean mouse weight was 20 g. Arthritis onset occurred on days 26‐38. Starting day 24, mice were injected intraperitoneally ([…]), GF9‐sHDL (2.5 mg/kg), GA/E31‐dHDL ([…]), GA/E31‐sHDL ([…]) or with PBS. Mice were weighed on study days 24, 26, 28, 30, 32, 34, 36 and 38 (prior to necropsy). Daily clinical scores were given on a scale of 0–5 for each of the paws on days 24–38 using previously described criteria 19. […]
At the end of study, fore paws, hind paws and knees were harvested, fixed in 10% neutral buffered formalin for 1–2 days, and then decalcified in 5% formic acid for 4–5 days before standard processing for paraffin embedding. […] The joints were then assessed using 0–5 scale for inflammation, pannus formation, cartilage damage, bone resorption and periosteal new bone formation as previously reported 19. A summed histopathology score (sum of five parameters, 0–25 scale) was also determined.

mice with CIA = assay: Collagen‐induced arthritis (CIA) model, clinical arthritis score; assay type: in vivo, mouse (DBA/1); details: 0.1 mg/kg, positive control; data not shown
Experimental: Animal studies were performed by Bolder BioPATH (Boulder, CO, USA). CIA was induced in male 6‐ to 7‐week‐old DBA/1 mice by immunization with bovine type II collagen as previously described 19. Briefly, mice were injected intradermally with 100 μl of Freund's complete adjuvant containing 250 μg of bovine type II collagen (2 mg/ml final concentration) at the base of the tail on day 0 and again on day 21. On day 24, mice were randomized by body weight into treatment groups. At enrolment on day 24, the mean mouse weight was 20 g. Arthritis onset occurred on days 26‐38. Starting day 24, mice were injected intraperitoneally (i.p.) daily for 14 consecutive days with GF9 (2.5 and 25 mg/kg), GF9‐G (25 mg/kg), GF9‐dHDL (2.5 mg/kg), GF9‐sHDL (2.5 mg/kg), GA/E31‐dHDL (dose equivalent to 4 mg of GF9/kg), GA/E31‐sHDL (dose equivalent to 4 mg of GF9/kg) or with PBS. Mice were weighed on study days 24, 26, 28, 30, 32, 34, 36 and 38 (prior to necropsy). Daily clinical scores were given on a scale of 0–5 for each of the paws on days 24–38 using previously described criteria 19. On day 38, mice were killed for necropsy.

For `C[C@@H]1C[C@H]2[C@@H]3CCC4=CC(=O)C=C[C@]4(C)[C@@]3(F)[C@@H](O)C[C@]2(C)[C@@]1(O)C(=O)CO` [dexamethasone], the “joint lesions (histopathology)” value (joints of mice with CIA; arthritic mice, day 38, not shown) was “No lesions were observed”, the “reduction of summed histopathology scores compared to vehicle‐treated mice” value (joints of mice with CIA; data not shown) was 99% and the “anti‐arthritic effect relative to GF9 at 25 mg/kg” value (mice with CIA) was “comparable”.

From PMC5618672, “Rationally designed ligand‐independent peptide inhibitors of TREM‐1 ameliorate collagen‐induced arthritis” (Journal of Cellular and Molecular Medicine, 2017)
